Values of other authors as cited in patent publication US8114298B2, “Method, device and system for water treatment” (Bromine Compounds Ltd., priority 2006, dated 2012).

How the values were obtained:
[1] = bleach; background statement
[2] = at 25° C.

shelf life [1]	SMILES	solubility in water [2]
3-6 months	OCl [Sodium Hypochlorite]	–
–	O=c1nc([O-])n(Cl)c(=O)n1Cl.[Na+] [NaDCC, sodium dichloroisocyanurate]	up to 24%
